System: M17—3TAU(P301L) cells
Assay: Neuroblastoma tauopathy model: inhibition of TAU-induced cytotoxicity (LDH)
Format: cell-based
Settings: Homo sapiens, 168 h; inhibition of TAU-induced toxicity (LDH), 7 days differentiation with retinoic acid
Outline: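 BE-M17 neuroblastoma cells stably expressing human TAU-P301L, differentiated with RA (2.5 μM in added medium) for 7 days at 37 °C with compounds at a range of concentrations. Cytotoxicity as supernatant LDH over total LDH (Cytotox 96); EC50 from dose-dependent inhibition curve.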

SMILES	EC50
COc1ccc(CCN2CCN(c3nc(-c4ccc(F)c(F)c4)ns3)CC2)cn1 [Example 105, 1-[3-(3,4-Difluoro-phenyl)-[1,2,4]thiadiazol-5-yl]-4-[2-(6-methoxy-pyridin-3-yl)-ethyl]-piperazine]	2.1 nM
Fc1ccc(-c2nsc(N3CCN(CCC4CCOCC4)CC3)n2)cc1F [Example 164, 3-(3,4-difluorophenyl)-5-(4-(2-(tetrahydro-2H-pyran-4-yl)ethyl)piperazin-1-yl)-1,2,4-thiadiazole]	3.4 nM
COc1cc(CCN2CCN(c3nc(-c4cnnc(C)c4)ns3)CC2)ccn1 [Example 176, 5-(4-(2-(2-methoxypyridin-4-yl)ethyl)piperazin-1-yl)-3-(6-methylpyridazin-4-yl)-1,2,4-thiadiazole]	19.5 nM
COc1ccc(CCN2CCN(c3nc(-c4cc(Cl)cc(Cl)c4)ns3)CC2)cc1 [Example 46, 1-[3-(3,5-Dichloro-phenyl)-[1,2,4]thiadiazol-5-yl]-4-[2-(4-methoxy-phenyl)-ethyl]-piperazine]	31.2 nM
COc1cc(CCN2CCN(c3nc(-c4ccc(C#N)cc4)ns3)CC2)ccn1 [Example 116, 4-(5-{4-[2-(2-Methoxy-pyridin-4-yl)-ethyl]-piperazin-1-yl}-[1,2,4]thiadiazol-3-yl)-benzonitrile]	14.1 nM
Cc1ncc(-c2nsc(N3CCN(CCc4ccc(F)cc4)CC3)n2)cn1 [Example 181, 5-(4-(4-fluorophenethyl)piperazin-1-yl)-3-(2-methylpyrimidin-5-yl)-1,2,4-thiadiazole]	31.6 nM
FC(F)(F)c1cccc(CCN2CCN(c3nc(-c4ccc(Cl)cc4)ns3)CC2)c1 [Example 140, 1-[3-(4-Chloro-phenyl)-[1,2,4]thiadiazol-5-yl]-4-[2-(3-trifluoromethyl-phenyl)-ethyl]-piperazine]	72.6 nM
Cc1ccccc1CN1CCN(c2nc(-c3ccc(Cl)cc3)ns2)CC1 [Example 12, 1-[3-(4-Chloro-phenyl)-[1,2,4]thiadiazol-5-yl]-4-(2-methyl-benzyl)-piperazine]	268 nM
Cc1cc(-c2nsc(N3CCN(CCc4ccc(F)cc4)CC3)n2)cnn1 [Example 174, 5-(4-(4-fluorophenethyl)piperazin-1-yl)-3-(6-methylpyridazin-4-yl)-1,2,4-thiadiazole]	12.6 nM
COc1cccc(CCN2CCN(c3nc(-c4cc(Cl)cc(Cl)c4)ns3)CC2)c1 [Example 31, 1-[3-(3,5-Dichloro-phenyl)-[1,2,4]thiadiazol-5-yl]-4-[2-(3-methoxy-phenyl)-ethyl]-piperazine]	21.1 nM
COc1ccc(CCN2CCN(c3nc(-c4ccccc4Cl)ns3)CC2)cc1 [Example 58, 1-[3-(2-Chloro-phenyl)-[1,2,4]thiadiazol-5-yl]-4-[2-(4-methoxy-phenyl)-ethyl]-piperazine]	2.2 nM
COc1cccc(CCN2CCN(c3nc(-c4ccccc4OC)ns3)CC2)c1 [Example 35, 1-[2-(3-Methoxy-phenyl)-ethyl]-4-[3-(2-methoxy-phenyl)-[1,2,4]thiadiazol-5-yl]-piperazine]	3.5 nM
COc1cccc(C(=O)CN2CCN(c3nc(-c4ccc(Cl)cc4)ns3)CC2)c1 [Example 60, 2-{4-[3-(4-Chloro-phenyl)-[1,2,4]thiadiazol-5-yl]-piperazin-1-yl}-1-(3-methoxy-phenyl)-ethanone]	41.2 nM
N#Cc1cccc(-c2nsc(N3CCN(CCc4ccc(F)cc4)CC3)n2)c1 [Example 111, 3-(5-{4-[2-(4-Fluoro-phenyl)-ethyl]piperazin-1-yl}-[1,2,4]thiadiazol-3-yl)-benzonitrile]	3.1 nM
Clc1cncc(-c2nsc(N3CCN(CCC4CCOCC4)CC3)n2)c1 [Example 166, 3-(5-chloropyridin-3-yl)-5-(4-(2-(tetrahydro-2H-pyran-4-yl)ethyl)piperazin-1-yl)-1,2,4-thiadiazole]	0.7 nM
COc1cccc(CCN2CCN(c3nc(-c4cccs4)ns3)CC2)c1 [Example 33, 1-[2-(3-Methoxy-phenyl)-ethyl]-4-(3-thiophen-2-yl-[1,2,4]thiadiazol-5-yl)-piperazine]	158 nM
